Series [1] can be described thus: Liver radioactivity in mice after repeated oral dosing. Format: in vivo. To be noted: oral 300 mg/kg daily for 8 days; for Total Liver Radioactivity: Cmin in liver; for Modified Ribavirin in liver: analyte modified Ribavirin.
Series [2] is described as follows: Toxicity findings (hemolytic anemia, RBCs) in Rhesus monkeys. To be noted: 60 mg/kg followed by 30 mg/kg*day for 10 days.
Series [3] is described as follows: RBC radioactivity in mice after repeated oral dosing. Type of series: in vivo. To be noted: oral 300 mg/kg daily for 8 days; for Medium RBC Radioactivity (Mice): Cmin in RBCs.
Series [4] in a line: RBC radioactivity in portal vein-cannulated cynomolgus monkeys. To be noted: for Medium RBC Radioactivity (Monkeys - multiple doses) / Medium RBC Radioactivity (Monkeys - single dose) / Time to peak radioactivity concentration in RBC: cynomolgus monkeys; for Medium RBC Radioactivity (Monkeys - multiple doses): projected steady state; for Medium RBC Radioactivity (Monkeys - single dose) / Time to peak radioactivity concentration in RBC: single oral dose 30 mg/kg.

In series [5] the target is T1, Adenosine deaminase (ADA) (Bos taurus, UniProt P56658).
T1 construct: Adenosine deaminase (ADA) isolated from calf intestine; purchased Boehringer Mannheim; host or cells: calf intestine (tissue-isolated)
T1 sequence (P56658 1-363): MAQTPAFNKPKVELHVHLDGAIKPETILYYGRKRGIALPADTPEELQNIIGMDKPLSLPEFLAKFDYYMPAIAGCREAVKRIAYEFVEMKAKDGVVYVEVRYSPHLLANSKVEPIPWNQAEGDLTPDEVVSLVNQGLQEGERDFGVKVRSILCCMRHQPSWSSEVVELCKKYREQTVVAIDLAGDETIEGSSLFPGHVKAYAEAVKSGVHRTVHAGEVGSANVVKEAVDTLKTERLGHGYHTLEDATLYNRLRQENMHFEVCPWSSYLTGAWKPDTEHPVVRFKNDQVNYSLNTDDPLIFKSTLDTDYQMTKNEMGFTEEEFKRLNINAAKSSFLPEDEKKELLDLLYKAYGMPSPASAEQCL
In words: In vitro deamination by adenosine deaminase (UV 240 nm, mass spectrum). Format: biochemical, calf. To be noted: 0.2 mM compound with 0.5 μM ADA overnight, mass spectrum analysis. As for the experimental part:
Adenosine deaminase (ADA) isolated from calf intestine was purchased from Boehringer Mannheim. The assay was performed in Dulbecco's PBS buffer (Na2HPO4, 8 mM; […] KCl, 2.7 mM; NaCl, 138 mM; pH 7.2) at room temperature (23° C.). […] Taking the limit of the UV assay method, the spontaneous hydrolysis of viramidine will be less than 2.5×10^−5 min^−1. […] The enzyme turnover number was estimated about 2.5 min^−1 at the current assay condition.

For a further series, the system named is erythrocytes. Nature of the series: Phosphorylation in erythrocytes. Type of series: cell-based. The text has this: For example, the selectivity of the pharmacological effect of 1-beta-D-ribofuranosyl-1,2,4-triazole-3-carboxamide (Ribavirin, Structure 1) is increased by covalently coupling an ═NH group to Ribavirin to form a carboxamidine group. Ribavirin is known to have antiviral properties in hepatitis virus-infected hepatocytes (e.g., see review Marcellin, P. and Benhamou J.; Treatment of chronic viral hepatitis, Baillieres Clin Gastroenteol 1994 June; 8(2):233-53). It is also known, that Ribavirin is readily phosphorylated in erythrocytes to the pharmacologically active form Ribavirin-phosphate at a significant rate (e.g., Homma, M. et al. High-performance liquid chromatographic determination of Ribavirin in whole blood to assess disposition in erythrocytes; Antimicrob Agents Chemother 1999 November; 43(11):2716-9), which reduces the selective pharmacological effect.

A short description of series [6]: Spontaneous hydrolysis in Dulbecco's PBS buffer without enzyme. Type of series: physicochemical. As for the experimental part: Adenosine deaminase (ADA) isolated from calf intestine was purchased from Boehringer Mannheim. The assay was performed in Dulbecco's PBS buffer (Na2HPO4, 8 mM; […] KCl, 2.7 mM; NaCl, 138 mM; pH 7.2) at room temperature (23° C.). […] Taking the limit of the UV assay method, the spontaneous hydrolysis of viramidine will be less than 2.5×10^−5 min^−1.

Series [7] can be described thus: Liver radioactivity estimated from portal vs systemic plasma in portal vein-cannulated monkeys. Type of series: in vivo.
The subject of the next series is RBCs. In words: In vitro transport into RBCs. Type of series: cell-based. To be noted: in vitro studies (data not shown).

For `NC(=O)c1ncn([C@@H]2O[C@H](CO)[C@@H](O)[C@H]2O)n1` [Ribavirin, 1-beta-D-ribofuranosyl-1,2,4-triazole-3-carboxamide, reference compound], in [1], the “Total Liver Radioactivity” value was found to be 18.4 μg equiv/g and the “Modified Ribavirin in liver” value is listed as “not detected”. Further, the “Radioactivity concentration Cmin in the liver, comparison” value in series [1] (Ribavirin compared to modified Ribavirin) is recorded as “significantly lower”. The “Toxicity findings on RBCs” value in [2] was “suffered from hemolytic anemia and significant decrease in RBCs”. In addition, the “Medium RBC Radioactivity (Mice)” value in series [3] is 1.36 μg equiv/g. Moreover, the “Medium RBC Radioactivity (Monkeys - multiple doses)” value in series [4] (multiple dosing at 30 mg/kg) is given as “˜5089 μg equiv/g”. For the same molecule, in [4], the “Medium RBC Radioactivity (Monkeys - single dose)” value is “˜41 μg equiv/g” and the “Time to peak radioactivity concentration in RBC” value turned out to be 24 h. The “Projected steady-state RBC radioactivity concentrations, comparison” value in series [4] (multiple dosing at 30 mg/kg, Ribavirin compared to modified Ribavirin) was “significantly higher”.

On to `N=C(N)c1ncn([C@@H]2O[C@H](CO)[C@@H](O)[C@H]2O)n1` [modified Ribavirin, 1-beta-D-ribofuranosyl-1,2,4-triazole-3-carboxamidine], for which the “Conversion to Ribavirin” value in series [5] is reported as “more than 75%”. Further, in series [1], the “Share of liver radioactivity accounted for by modified Ribavirin” value was “about 30%”, the “Total Liver Radioactivity” value is 23.8 μg equiv/g and the “Modified Ribavirin in liver” value is “˜7.2 μg eguiv/g μg equiv/g”. For the same molecule, the RTCA in liver result in series [1] (analyte RTCA) was “not detected”. In addition, in the series on erythrocytes, the Phosphorylation in erythrocytes entry is “is not, or is only insignificantly phosphorylated in erythrocytes”. For the same molecule, the “Toxicity findings on RBCs” value in series [2] is listed as “no significant changes in RBCs”. Moreover, the Spontaneous hydrolysis rate entry in [6] (limit of the UV assay method, pH 7.2) was “less than 2.5×10^−5 min^−1”. In addition, the “Spontaneous hydrolysis in buffer” value in series [6] (no enzyme, pH 7.2, 1.5 h, 23° C.) is recorded as “no spontaneous hydrolysis”. Further, in [6] (zinc ion added to the buffer), the “Effect of zinc ion on spontaneous hydrolysis rate” value is given as “does not enhance the spontaneous hydrolysis rate”. For the same molecule, the “RBC radioactivity as compared to Ribavirin” value in [7] (monkeys) is approximately 12%. Moreover, the “Liver radioactivity concentration, higher than after oral dosing of Ribavirin” value in series [7] (portal vein-cannulated monkeys, oral administration) is given as “approximately 50%”. In addition, in series [3], the “Medium RBC Radioactivity (Mice)” value was determined as 0.38 μg equiv/g. In series [3] (modified Ribavirin vs Ribavirin), the “Radioactivity concentration Cmin in RBCs, comparison” value is listed as “significantly lower”. Moreover, in the series with RBCs, the “Transport into RBCs” value is recorded as “not directly transported into RBCs”. Also, the “Medium RBC Radioactivity (Monkeys - multiple doses)” value in [4] (multiple dosing at 30 mg/kg) is recorded as “˜606 μg equiv/g”. In [4], the “Medium RBC Radioactivity (Monkeys - single dose)” value is recorded as “˜17 μg equiv/g” and the “Time to peak radioactivity concentration in RBC” value was determined as 24 h.

The values are drawn from patent US20040014696A1, “Specificity in treatment of diseases” (priority 2003, published 2004).
